What was measured:
[1] = Storage stability of RVG and Ret-NH2; format: physicochemical
Source text: The synthesis was straightforward, and Ret-NH2 reacted with fluorenylmethyloxycarbonyl (Fmoc) protected amino acids or peptides in the presence of coupling agents. The Fmoc group then was removed using 20% piperidine in […] solution to give target molecules. The retinylamine derivatives were characterized by ^1H-NMR, ^13C-NMR and mass spectroscopy. The retinylamine derivatives had the purity over 95% as determined by HPLC except 3m Ret-Gly-Gly (RGG) with the purity of 90% (see SI). We tested the stability of RVG. Less than 5% degradation was observed when RVG was stored in the desiccator under vacuum at r.t. for 2 months, while 95% of Ret-NH2 decomposed under the same condition within 1 week.

[2] = Storage stability of PEG-GFL-NH-Ret conjugate in solid form; format: physicochemical; details: room temperature, same condition
Source text: The number and weight-average molecular weights of polymer conjugate was 21 and 22 kDa (Mw/Mn=1.05), as determined by size exclusion chromatography. […] The structure of PEG-GFL-NHRet was preserved during the storage in solid form more than 6 months at room temperature, while free Ret-NH2 decomposed in less than 1 week under the same condition.

[3] = Pharmacokinetics of PEG-GFL-NH-Ret in C57BL mice (N-retinylamides in liver and eye); format: in vivo; details: 1 mg equivalent Ret-NH2 per mouse oral, especially first 8 h after gavage
Method: Female C57BL mice (4-week-old) were randomly divided into two dosing groups. One group of mice was gavaged with one dose of Ret-NH2 (1 mg per mouse, dissolved in DMSO), and the other group of mice was also gavaged once with PEG-GFL-NH-Ret (17.5 mg per mouse, equivalent to 1 mg Ret-NH2 per mouse). Then at each predetermined time point (0, 4 h, 8 h, 24 h, 48 h and 72 h after drug administration), 6 mice were sacrificed. The liver and eye balls were collected to determine tissue N-retinylamide content for pharmacokinetic analysis. A portion of the liver tissue (ca. 0.5 g) was weighed, homogenized in 2 mL 1:1 ethanol:PBS solution and the eye balls were similarly processed. N-Retinylamides were extracted in 4 mL hexane, concentrated, and reconstituted to a 300 μL volume. Normal-phase HPLC (Agilent-Zorbax SIL; 5 μm; 4.5×250 mm; flow rate of 1.4 mL/min; 80:20 hexane:ethyl acetate (v:v); detection at 325 nm) was utilized to determine N-retinylamide concentration in these tissues.

Abca4^−/−Rdh8^−/− mice = test: Preventing light-induced retinal degeneration with PEG-GFL-NH-Ret in Abca4-/-Rdh8-/- mice; format: in vivo, mouse
Method: Abca4^−/−Rdh8^−/− mice (male and female, 4-week-old, 4-5 mice in each treatment group) were kept in the dark for 48 h before each experiment. Then free Ret-NH2 (0.5 mg, 1.75 μmol) per mouse) or conjugate PEG-GFL-NH-Ret (8.75 mg per mouse, equivalent to 0.5 mg free Ret-NH2 per mouse) was administered by gastric gavage. Mice were illuminated with 10,000 lux light for 30 min at 1 day, 3 days or 6 days after their gavage, and then kept in the dark for 7 days when final retinal evaluations were performed. […] Dark-adapted mice were anesthetized by the same protocol used for OCT recordings. All experimental procedures were performed under a safety light. A contact lens electrode was placed on the eye, and a reference electrode and ground electrode were placed underneath the skin between the two ears and in the tail, respectively. ERGs were recorded with the universal electrophysiologic system UTAS E-3000 (LKC Technologies, Inc., Gaithersburg, Md.). Light intensity calibrated by the manufacturer was computer-controlled. Mice were placed in a Ganzfeld dome, and scotopic responses to flash stimuli were obtained from both eyes simultaneously.

| SMILES | degradation on storage ([1]; stored in the desiccator under vacuum at r.t. for 2 months) | decomposed on storage ([1]; desiccator under vacuum at r.t., within 1 week) | time to decomposition on storage [2] | liver concentrations of N-retinylamides [3] | protection against light-induced retinal degeneration by OCT (Abca4^−/−Rdh8^−/− mice; 0.5 mg Ret-NH2 equivalent per mouse gavaged 1 day before light exposure) | protection against light-induced retinal degeneration by OCT (Abca4^−/−Rdh8^−/− mice; 0.5 mg Ret-NH2 equivalent per mouse gavaged 3 days before light exposure) | protection against light-induced retinal degeneration by OCT (Abca4^−/−Rdh8^−/− mice; 0.5 mg Ret-NH2 equivalent per mouse gavaged 6 days before light exposure) | ONL thickness from OCT images (Abca4^−/−Rdh8^−/− mice; gavaged 1 day before light exposure) | ERG responses (Abca4^−/−Rdh8^−/− mice; gavaged 3 days before strong light exposure) | ONL thickness from OCT images (Abca4^−/−Rdh8^−/− mice; gavaged 3 days before strong light illumination) |
| --- | --- | --- | --- | --- | --- | --- | --- | --- | --- | --- |
| CC1=C(/C=C/C(C)=C/C=C/C(C)=C/CNC(=O)[C@@H](NC(=O)CN)C(C)C)C(C)(C)CCC1 [RVG, (S)-2-(2-aminoacetamido)-N-((2E,4E,6E,8E)-3,7-dimethyl-9-(2,6,6-trimethylcyclohex-1-en-1-yl)nona-2,4,6,8-tetraen-1-yl)-3-methylbutanamide] | Less than 5% |  |  |  |  |  |  |  |  |  |
| CC1=C(/C=C/C(C)=C/C=C/C(C)=C/CN)C(C)(C)CCC1 [Ret-NH2, (2E,4E,6E,8E)-3,7-dimethyl-9-(2,6,6-trimethylcyclohex-1-en-1-yl)nona-2,4,6,8-tetraen-1-amine] |  | 95% | less than 1 week | much higher liver concentrations of N-retinylamides than those treated with the conjugate | effective protection against light-induced retinal degeneration | did not maintain such protection | No protective effect | thickness comparable to that of mice without light illumination | significant loss of ERG activity | significantly reduced |

Reference: US10471118B2, “Retinylamine derivitives for treatment of ocular disorders” (CASE WESTERN RESERVE UNIVERSITY, priority 2014, dated 2019)
